Counter-ions that a name gives are not always drawn.
Key:
Type in all cases: biochemical
[1] = target: T1, phosphorylated LCK kinase (Homo sapiens, UniProt P06239, C224D/P223M); experiment: Inhibition of phosphorylated LCK tyrosine kinase activity (coupled spectrophotometric assay); details: read-out: P-LCK % Inhibition at 1 μM
T1 construct: starting from amino acid 223 to the end of the protein at amino acid 509; made in house; host or cells: insect cells
Procedure: Cloning, expression and purification of the cytosolic domain of FGFR1 tyrosine kinase (amino acids 456-766) containing three amino acid substitutions (L457V, C488A, and C584S) were conducted as previously described (Mohammadi, M., Schiessinger, J., & Hubbard, S. R. Cell, 86, (1996) 577-587). This domain was expressed in Sf9 insect cells using a baculovirus expression vector, and protein was purified using conventional techniques. The LCK tyrosine kinase was expressed in insect cells as an N-terminal deletion starting from amino acid 223 to the end of the protein at amino acid 509. The N-terminus of the protein also had two amino acid substitutions, P223M and C224D. Kinases were purified using conventional chromatographic methods.
Tyrosine kinase activity was measured using a coupled, continuous spectrophotometric assay, in which production of phosphorylated poly(Glu,Tyr; 4:1) substrate and ADP is coupled to the pyruvate kinase-catalyzed transfer of a phosphate from phosphoenolpyruvate to ADP, with generation of pyruvate and regeneration of ATP. Pyruvate production is in turn coupled to the lactate dehydrogenase-catalyzed reduction of pyruvate to form lactate, with concomitant conversion of NADH to NAD^+. Loss of NADH is monitored by measuring absorbance at 340 nm (see e.g., Technikova-Dobrova et al., “Spectrophotometric Determination of Functional Characteristics of Protein Kinases with Coupled Enzymatic Assay,” FEBS Letters, 292 (1991), pp. 69-72). Enzyme activity was measured in the presence of 200 mM HEPES (pH 7.5), 2 mM phosphoenolpyruvate, 0.3 mM NADH, 20 mM MgCl2, 100 μM ATP, 5 mM DTT, 5.1 or 25 mM poly (Glu,Tyr) 4:1 for P-FGF or P-LCK assays, respectively, and 15 units/mL each of pyruvate kinase and lactate dehydrogenase. Phosphorylated FGF receptor kinase was present at 100 nM and phosphorylated LCK kinase was present at 50 nM. Assays were performed under initial rate conditions at 37° C., and rates were corrected for any background rate measured in the absence of enzyme. Percent inhibition was calculated relative to control enzyme assayed in the presence of 2% (v/v) DMSO.

[2] = target: T2, human CDK1 (cdc2)/cyclin B (Homo sapiens, UniProt P06493); experiment: Inhibition of CDK1 (cdc2)/cyclin B histone H1 kinase activity; details: histone H1 substrate
T2 construct: purchased New England Biolabs (Beverly, Mass.)
Procedure: Cyclin-dependent kinase activity was measured by quantifying the enzyme-catalyzed, time-dependent incorporation of radioactive phosphate from [^32P]ATP or [^33P]ATP into a protein substrate. Unless noted otherwise, assays were performed in 96-well plates in a total volume of 50 μL, in the presence of 10 mM HEPES (N-[2-hydroxyethyl]piperazine-N′-[2-ethanesulfonic acid]) (pH 7.4), 10 mM MgCl2, 25 μM adenosine triphosphate (ATP), 1 mg/mL ovalbumin, 5 μg/mL leupeptin, 1 mM dithiothreitol, 10 mM β-glycerophosphate, 0.1 mM sodium vanadate, 1 mM sodium fluoride, 2.5 mM ethylene glycol-bis(β-aminoethyl ether)-N,N,N′N′-tetraacetic acid (EGTA), 2% (v/v) dimethylsulfoxide, and 0.03-0.4 μCi [^32/33P]ATP per reaction. Reactions were initiated with enzyme, incubated at 30° C., and terminated after 20 minutes by the addition of ethylenediaminetetraacetic acid (EDTA) to 250 mM. The phosphorylated substrate was then captured on a nitrocellulose or phosphocellulose membrane using a 96-well filtration manifold, and unincorporated radioactivity was removed by repeated washing with 0.85% phosphoric acid. Radioactivity was quantified by exposing the dried membranes to a phosphorimager.
Compounds from combinatorial libraries were screened from 96-well plates for % inhibition of CDK activity at 30 nM theoretical compound concentration. Inhibition was measured relative to control wells that contained all reaction components including 2% (v/v) DMSO but no compound, after subtraction of background radioactivity measured in the absence of enzyme. Apparent Ki values of discrete compounds were measured by assaying enzyme activity in the presence of different inhibitor compound concentrations and subtracting the background radioactivity measured in the absence of enzyme. The kinetic parameters (kcat, Km for ATP) were measured for each enzyme under the usual assay conditions by determining the dependence of initial rates on ATP concentration. Inhibition data were fit to an equation for competitive inhibition using Kaleidagraph (Synergy Software), or were fit to an equation for competitive tight-binding inhibition using the software KineTic (BioKin, Ltd.).
The complex of human CDK1 (cdc2) and cyclin B was purchased from New England Biolabs (Beverly, Mass.). Alternatively, a CDK1/glutathione-S-transferase-cyclin B1 complex was purified using glutathione affinity chromatography from insect cells that had been co-infected with the corresponding baculovirus expression vectors. The assay was executed as described above at 30° C. using 2.5 units of cdc2/cyclin B, 10 μg Histone H1 protein, and 0.1-0.3 μCi [^32/33P]ATP per assay. Phosphorylated histone substrate was captured by microfiltration on a phosphocellulose P81 membrane and quantified using a phosphorimager as described above. Ki values were measured using the described curve-fitting programs.

[3] = target: T3, CDK2/cyclin A (Homo sapiens, UniProt P24941); experiment: Inhibition of CDK2/cyclin A retinoblastoma kinase activity (Ki; % inhibition); details: apparent Ki, CDK2/cyclin A, Rb substrate
T3 construct: made in house; host or cells: CDK2: insect cells (baculovirus); cyclin A: E. coli
Outline: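 Apparent Ki values came from fitting concentration-dependent activity data to competitive (or competitive tight-binding) models, and % inhibition from single 30 nM screens of library compounds. Activity was measured as ³²P/³³P incorporation from 25 μM ATP into an Rb substrate by 10 or 19 nM CDK2/delta cyclin A at 30 °C over 60–75 min, pH 7.4.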

T1 sequence (P06239 223-509 P223M/C224D): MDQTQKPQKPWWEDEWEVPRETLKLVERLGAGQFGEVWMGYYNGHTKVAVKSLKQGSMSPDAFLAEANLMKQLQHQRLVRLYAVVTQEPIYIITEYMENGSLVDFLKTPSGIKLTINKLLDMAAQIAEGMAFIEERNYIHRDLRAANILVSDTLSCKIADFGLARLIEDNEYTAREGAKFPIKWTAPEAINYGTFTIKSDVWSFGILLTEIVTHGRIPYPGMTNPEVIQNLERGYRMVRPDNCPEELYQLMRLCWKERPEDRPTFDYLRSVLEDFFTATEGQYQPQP
T2 sequence (P06493 whole entry): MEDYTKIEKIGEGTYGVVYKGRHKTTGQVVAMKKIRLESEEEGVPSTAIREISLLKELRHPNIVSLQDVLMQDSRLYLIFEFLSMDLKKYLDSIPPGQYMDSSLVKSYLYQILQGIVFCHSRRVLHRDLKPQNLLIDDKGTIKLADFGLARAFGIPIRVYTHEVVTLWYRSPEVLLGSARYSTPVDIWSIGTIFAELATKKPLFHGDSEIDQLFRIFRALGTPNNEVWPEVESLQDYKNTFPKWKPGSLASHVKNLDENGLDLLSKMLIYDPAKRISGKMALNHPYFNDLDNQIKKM
T2 sequence (P14635 whole entry partner): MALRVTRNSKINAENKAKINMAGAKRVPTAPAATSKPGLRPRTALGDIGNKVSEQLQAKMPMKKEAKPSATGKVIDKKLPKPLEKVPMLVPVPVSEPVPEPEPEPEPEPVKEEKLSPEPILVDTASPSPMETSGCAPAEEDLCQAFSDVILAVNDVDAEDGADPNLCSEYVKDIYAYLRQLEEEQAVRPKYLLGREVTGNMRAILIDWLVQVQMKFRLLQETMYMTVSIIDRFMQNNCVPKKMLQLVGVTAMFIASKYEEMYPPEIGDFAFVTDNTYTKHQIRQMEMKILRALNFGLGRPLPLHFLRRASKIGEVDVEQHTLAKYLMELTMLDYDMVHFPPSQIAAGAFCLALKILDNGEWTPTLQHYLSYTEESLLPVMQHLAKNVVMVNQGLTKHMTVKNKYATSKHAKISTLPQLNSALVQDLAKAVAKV

Structure (SMILES)	inhibition at 1 µM [1]	Ki [2]	Ki [3]
CN1CCC[C@H]1CNC(=O)c1ccc(Nc2nc(N)c(C(=O)c3c(F)cccc3F)s2)cc1 [Example A31, 4-[4-Amino-5-(2,6-difluoro-benzoyl)-thiazol-2-ylamino]-N-(1-methyl-pyrrolidin-2S-yl-methyl)-benzamide Dihydrochloride]	0%	82 nM	49 nM
Nc1nc(Nc2ccc(C(=O)Nc3ccc(N4CCOCC4)cc3)cc2)sc1C(=O)c1c(F)cccc1F [Example A21]	0%	120 nM	105 nM
Nc1nc(Nc2ccc(C(=O)NCCc3ccc(O)cc3)cc2)sc1C(=O)c1c(F)cccc1F [Example A14, 4-[4-Amino-5-(2,6-difluoro-benzoyl)-thiazol-2-ylamino]-N-[2-(4-hydroxy-phenyl)-ethyl]-benzamide]	0%	42 nM	60 nM

Second part, the compound after the results:

inhibition at 1 µM [1]	Ki [2]	Ki [3]	Structure (SMILES)
0%	150 nM	162 nM	CC(CN(C)C)NC(=O)c1ccc(Nc2nc(N)c(C(=O)c3c(F)cccc3F)s2)cc1 (stereo not drawn) [Example A20, 4-[4-Amino-5-(2,6-difluoro-benzoyl)-thiazol-2-ylamino]-N-(2-dimethylamino-1RS-methyl-ethyl)-benzamide Hydrochloride Salt]
0%	68 nM	150 nM	Nc1nc(Nc2ccc(C(=O)NCCN3CCCCC3)cc2)sc1C(=O)c1c(F)cccc1F [Example A15, 4-[4-Amino-5-(2,6-difluoro-benzoyl)-thiazol-2-ylamino]-N-(2-piperidin-1-yl-ethyl)-benzamide]

Reference: patent publication US6720346B2, “Thiazole benzamide derivatives and pharmaceutical compositions for inhibiting cell proliferation” (Agouron Pharmaceuticals, Inc., priority 2001, dated 2004)
